Data published in the NIST ThermoML archive (doi:10.1021/je049612f).

Settings: Gas, Vibrating wire viscometry

FS(F)(F)(F)(F)F [sulfur hexafluoride]
Settings | viscosity [mPa·s]
300 K, 26.36 kPa | 0.01529
300 K, 50.94 kPa | 0.01531
300 K, 73.62 kPa | 0.01532
300 K, 105.89 kPa | 0.01532
300 K, 125.7 kPa | 0.01533
300 K, 152.62 kPa | 0.01533
300 K, 177.62 kPa | 0.01533
300 K, 195.25 kPa | 0.01534
300 K, 227.52 kPa | 0.01534
300 K, 251.51 kPa | 0.01535
300 K, 278.58 kPa | 0.01535
300 K, 301.45 kPa | 0.01535
300 K, 327.3 kPa | 0.01536
300 K, 353.41 kPa | 0.01536
300 K, 378.55 kPa | 0.01537
300 K, 401.57 kPa | 0.01537
300 K, 425.72 kPa | 0.01538
300 K, 444.52 kPa | 0.01538
300 K, 471.71 kPa | 0.01539
300 K, 491.53 kPa | 0.0154
300 K, 538.31 kPa | 0.01541
300 K, 565.24 kPa | 0.01542
300 K, 597.98 kPa | 0.01543
300 K, 634.58 kPa | 0.01544
300 K, 665.1 kPa | 0.01545
300 K, 700.96 kPa | 0.01546
300 K, 731.45 kPa | 0.01547
300 K, 763.98 kPa | 0.01548
300 K, 800.2 kPa | 0.01549
300 K, 835.89 kPa | 0.01551
300 K, 869.95 kPa | 0.01553
300 K, 898.41 kPa | 0.01554
300 K, 930.75 kPa | 0.01556
300 K, 968.74 kPa | 0.01558
300 K, 997.76 kPa | 0.01559
300 K, 1036.4 kPa | 0.01561
300 K, 1090.2 kPa | 0.01565
300 K, 1140.1 kPa | 0.01568
300 K, 1181.5 kPa | 0.0157
300 K, 1223.6 kPa | 0.01574
300 K, 1280.6 kPa | 0.01578
300 K, 1333.3 kPa | 0.01582
300 K, 1380.9 kPa | 0.01586
300 K, 1417.9 kPa | 0.01589
300 K, 1493.3 kPa | 0.01596
300 K, 1537.7 kPa | 0.016
300 K, 1594.6 kPa | 0.01606
300 K, 1637.3 kPa | 0.01611
300 K, 1680.6 kPa | 0.01616
300 K, 1735.3 kPa | 0.01622
300 K, 1784.4 kPa | 0.01629
300 K, 1826.5 kPa | 0.01635
300 K, 1865.1 kPa | 0.01641
300 K, 1927.3 kPa | 0.0165
300 K, 1980 kPa | 0.01659
300 K, 2039.3 kPa | 0.0167
316 K, 112.75 kPa | 0.01605
316 K, 143.54 kPa | 0.01605
316 K, 174.6 kPa | 0.01606
316 K, 197.59 kPa | 0.01606
316 K, 218.05 kPa | 0.01607
316 K, 245.03 kPa | 0.01607
316 K, 262.84 kPa | 0.01607
316 K, 287.46 kPa | 0.01608
316 K, 307.35 kPa | 0.01608
316 K, 332.06 kPa | 0.01609
316 K, 357.7 kPa | 0.0161
316 K, 383.76 kPa | 0.0161
316 K, 402.43 kPa | 0.01611
316 K, 428.01 kPa | 0.01611
316 K, 468.39 kPa | 0.01613
316 K, 490.91 kPa | 0.01613
316 K, 519.48 kPa | 0.01614
316 K, 548.34 kPa | 0.01615
316 K, 585.01 kPa | 0.01616
316 K, 614.48 kPa | 0.01617
316 K, 650.85 kPa | 0.01618
316 K, 685.07 kPa | 0.0162
316 K, 712.63 kPa | 0.0162
316 K, 749.05 kPa | 0.01622
316 K, 780.4 kPa | 0.01623
316 K, 810.74 kPa | 0.01624
316 K, 843.2 kPa | 0.01626
316 K, 882.81 kPa | 0.01628
316 K, 913.9 kPa | 0.01629
316 K, 955.92 kPa | 0.01631
316 K, 994.72 kPa | 0.01634
316 K, 1031.1 kPa | 0.01635
316 K, 1084.1 kPa | 0.01638
316 K, 1120.4 kPa | 0.01641
316 K, 1178.3 kPa | 0.01644
316 K, 1215.2 kPa | 0.01646
316 K, 1257.3 kPa | 0.0165
316 K, 1314.3 kPa | 0.01654
316 K, 1374.4 kPa | 0.01658
316 K, 1422.9 kPa | 0.01662
316 K, 1465.6 kPa | 0.01665
316 K, 1530.4 kPa | 0.01671
316 K, 1572.7 kPa | 0.01674
316 K, 1609.8 kPa | 0.01678
316 K, 1667.2 kPa | 0.01684
316 K, 1724.2 kPa | 0.01689
316 K, 1772.5 kPa | 0.01694
316 K, 1821.1 kPa | 0.017
316 K, 1860.3 kPa | 0.01704
316 K, 1922.7 kPa | 0.01711
316 K, 1988.5 kPa | 0.0172
316 K, 2021.6 kPa | 0.01725
316 K, 2087.4 kPa | 0.01733
316 K, 2155.2 kPa | 0.01744
316 K, 2223.8 kPa | 0.01755
316 K, 2273.2 kPa | 0.01763
316 K, 2319.1 kPa | 0.01771
316 K, 2375.8 kPa | 0.01781
316 K, 2448.5 kPa | 0.01796
316 K, 2510 kPa | 0.01809
316 K, 2587.2 kPa | 0.01826
316 K, 2658.2 kPa | 0.01844
316 K, 2724.3 kPa | 0.01862
316 K, 2792.7 kPa | 0.01883
316 K, 2860.9 kPa | 0.01906
316 K, 2916.5 kPa | 0.01925
316 K, 2981.1 kPa | 0.0195
316 K, 3007.9 kPa | 0.01963
316 K, 3070 kPa | 0.01992
316 K, 3135.2 kPa | 0.02025
321 K, 77.46 kPa | 0.01627
321 K, 97.02 kPa | 0.01627
321 K, 114.16 kPa | 0.01627
321 K, 146.57 kPa | 0.01628
321 K, 169.96 kPa | 0.01629
321 K, 205.62 kPa | 0.01629
321 K, 239.58 kPa | 0.0163
321 K, 264.1 kPa | 0.0163
321 K, 293.39 kPa | 0.01631
321 K, 339.65 kPa | 0.01632
321 K, 374.89 kPa | 0.01633
321 K, 400.93 kPa | 0.01634
321 K, 428.98 kPa | 0.01634
321 K, 457.31 kPa | 0.01635
321 K, 488.99 kPa | 0.01636
321 K, 523.86 kPa | 0.01637
321 K, 563.16 kPa | 0.01638
321 K, 592.18 kPa | 0.01639
321 K, 633.22 kPa | 0.01641
321 K, 681.18 kPa | 0.01643
321 K, 732.46 kPa | 0.01644
321 K, 790.88 kPa | 0.01647
321 K, 823.55 kPa | 0.01648
321 K, 857.52 kPa | 0.0165
321 K, 896.2 kPa | 0.01652
321 K, 934.23 kPa | 0.01654
321 K, 969 kPa | 0.01655
321 K, 1031.4 kPa | 0.01658
321 K, 1089.4 kPa | 0.01662
321 K, 1125 kPa | 0.01664
321 K, 1178.7 kPa | 0.01667
321 K, 1223.2 kPa | 0.0167
321 K, 1282.4 kPa | 0.01674
321 K, 1340 kPa | 0.01678
321 K, 1386.2 kPa | 0.01682
321 K, 1431.8 kPa | 0.01686
321 K, 1483.3 kPa | 0.01689
321 K, 1538.9 kPa | 0.01694
321 K, 1647 kPa | 0.01703
321 K, 1693.1 kPa | 0.01708
321 K, 1744.5 kPa | 0.01713
321 K, 1788.6 kPa | 0.01718
321 K, 1847.4 kPa | 0.01724
